# From the supplement of paper PMC13380429
# Tests used:
# Settings in all cases: 72 h
# Caco-2 [1] = experiment: cell viability relative to DMSO; higher = less toxic
# Calu-3 [2] = experiment: as above
# HepG2 [3] = experiment: as above
# U2OS [4] = experiment: as above
# Vero E6 [5] = experiment: as above
# Caco-2 [6] = experiment: relative viability EC50 (midpoint between 100% and the lowest measured viability); higher = less toxic
# Calu-3 [7] = experiment: as above
# HepG2 [8] = experiment: as above
# U2OS [9] = experiment: as above
# Vero E6 [10] = experiment: as above
# Caco-2 [11] = experiment: drug sensitivity score (DSS) for viability; higher = more toxic; extreme values may be limits of the assay
# Calu-3 [12] = experiment: as above
# HepG2 [13] = experiment: as above
# U2OS [14] = experiment: as above
# Vero E6 [15] = experiment: as above
Compound,cell viability (Caco-2 [1]; 1 nM),cell viability (Caco-2 [1]; 10 nM),cell viability (Caco-2 [1]; 100 nM),cell viability (Caco-2 [1]; 1000 nM),cell viability (Caco-2 [1]; 10000 nM),cell viability (Calu-3 [2]; 1 nM),cell viability (Calu-3 [2]; 10 nM),cell viability (Calu-3 [2]; 100 nM),cell viability (Calu-3 [2]; 1000 nM),cell viability (Calu-3 [2]; 10000 nM),cell viability (HepG2 [3]; 1 nM),cell viability (HepG2 [3]; 10 nM),cell viability (HepG2 [3]; 100 nM),cell viability (HepG2 [3]; 1000 nM),cell viability (HepG2 [3]; 10000 nM),cell viability (U2OS [4]; 1 nM),cell viability (U2OS [4]; 10 nM),cell viability (U2OS [4]; 100 nM),cell viability (U2OS [4]; 1000 nM),cell viability (U2OS [4]; 10000 nM),cell viability (Vero E6 [5]; 1 nM),cell viability (Vero E6 [5]; 10 nM),cell viability (Vero E6 [5]; 100 nM),cell viability (Vero E6 [5]; 1000 nM),cell viability (Vero E6 [5]; 10000 nM),relative viability EC50 (Caco-2 [6]),relative viability EC50 (Calu-3 [7]),relative viability EC50 (HepG2 [8]),relative viability EC50 (U2OS [9]),relative viability EC50 (Vero E6 [10]),drug sensitivity score (Caco-2 [11]),drug sensitivity score (Calu-3 [12]),drug sensitivity score (HepG2 [13]),drug sensitivity score (U2OS [14]),drug sensitivity score (Vero E6 [15])
O=C(c1ccc(F)cc1)N1CCC[C@H](c2nc(-c3ccc(F)cc3)no2)C1,101%,94.3%,91.8%,99.7%,87.9%,90%,100%,85.3%,98.2%,75.5%,93.7%,99.4%,93%,96%,91.1%,94%,101%,99.9%,98.8%,91.7%,98.3%,93.5%,94.7%,93.9%,95.5%,> 10 µM,> 10 µM,> 10 µM,> 10 µM,> 10 µM,0,1.2,0,0,0
O=C1C(=C(O)/C=C/c2ccc(O)cc2)C(=O)[C@@](O)([C@@H]2O[C@H](CO)[C@@H](O)[C@H](O)[C@H]2O)C(=O)[C@H]1[C@@H]1O[C@H](CO)[C@@H](O)[C@H](O)[C@H]1O,102%,91.2%,93.1%,93.3%,95.8%,103%,97.6%,102%,101%,97.9%,102%,97.2%,104%,102%,106%,101%,97.8%,95%,99.3%,98.6%,101%,98.1%,98.5%,95.8%,98.5%,> 10 µM,> 10 µM,> 10 µM,> 10 µM,> 10 µM,0,0,0,0,0
c1ccc(CN2CCC3(CCc4ccccc43)CC2)cc1,96.9%,97.5%,99%,93%,89.6%,99.6%,98.5%,108%,95.4%,96.5%,95.1%,101%,91.9%,106%,102%,102%,102%,101%,99.6%,99.6%,97.1%,97%,92.8%,94.4%,104%,> 10 µM,> 10 µM,> 10 µM,> 10 µM,> 10 µM,0,0,0,0,0
